Reference: patent publication US8592428B2 (MSD K. K., priority 2008, dated 2013)
≈ marks a conversion by molar mass, not a printed value.

Tests used:
[1] = Solubility in water by solution precipitation method (HPLC); assay type: physicochemical; settings: water (2% DMSO), kinetic from dmso stock, from 10 mM DMSO solution, 60 minutes stirring at room temperature, compounds of the present invention
Protocol: For solubility in water, the solubility of a compound in water was determined by a solution precipitation method.
For an HPLC system, Agilent HPLC 1100 system was used. […] For a shaker, Microincubator M-36 (Taitec) was used. For a plate, a 96-deep well plate (Nunc. 260252) was used. For a well cap, Pre-Slit Well Cap for 96 Well PP (NALGENE. 276011) was used. For a filtration plate, MultiScreen Solubility (Millipore; MSSLBPC10) was used. For dispensation, an 8-channel electronic multipipette, Biohit Proline (Biohit), and a 96-well automatic pipetting device, Biomeck 2000 (Biomeck) were used. For a reagent used, a pure solvent for DMSO ultraviolet absorption spectrum (Dojindo 349-01025) and water (MiliQ water, manufactured by Millipore).
For a DMSO solution, a sample was prepared with DMSO to be precisely 10 mM.
Precise dispensation of 10 μL of a DMSO solution into each well of a 96-well plate was performed. Following addition of 490 μL of water to each of the wells and plate-sealing with 96-well Cap (Agilent No. 5042-1389), intense stirring processing of the plate was performed for 60 minutes at room temperature on a shaker. Subsequently, 200 μL of a treatment sample was added to a plate for centrifugal filtration, and centrifugal filtration of the sample was performed to obtain a filtrate. A sample solution was made by adding 200 μl, of a 50% aqueous acetonitrile solution to the provided filtrate.
Precise dispensation of 10 μL of a DMSO solution into each well of a 96-well plate was performed.
Detection was performed using a multi-wavelength detector (190-370 nm). For a column, the above-mentioned column was used at 40° C. A flow rate was set at 1.2 ml/min, and an amount of an injected sample at 20 μL. For a moving phase, a 0.1% aqueous phosphoric acid solution as a liquid A and acetonitrile as a liquid B were used to carry out analyses in accordance with a time schedule described below.
For the analyses, the data of UV 275 nm were adopted. […] Using the calibration curve, regression calculation of concentrations in water was carried out from Area of sample solutions (water).

[2] = target: T1, recombinant human liver GK (Homo sapiens, UniProt P35557); assay: Glucokinase-activating effect (Thio-NADH coupled G6PDH assay); assay type: biochemical; settings: final glucose concentration 2.5 mM, 30° C.; for Emax: OD level of DMSO control = 100%
T1 construct: made in house; host or cells: E. coli
T1 sequence (P35557 1-466 isoform P35557-2): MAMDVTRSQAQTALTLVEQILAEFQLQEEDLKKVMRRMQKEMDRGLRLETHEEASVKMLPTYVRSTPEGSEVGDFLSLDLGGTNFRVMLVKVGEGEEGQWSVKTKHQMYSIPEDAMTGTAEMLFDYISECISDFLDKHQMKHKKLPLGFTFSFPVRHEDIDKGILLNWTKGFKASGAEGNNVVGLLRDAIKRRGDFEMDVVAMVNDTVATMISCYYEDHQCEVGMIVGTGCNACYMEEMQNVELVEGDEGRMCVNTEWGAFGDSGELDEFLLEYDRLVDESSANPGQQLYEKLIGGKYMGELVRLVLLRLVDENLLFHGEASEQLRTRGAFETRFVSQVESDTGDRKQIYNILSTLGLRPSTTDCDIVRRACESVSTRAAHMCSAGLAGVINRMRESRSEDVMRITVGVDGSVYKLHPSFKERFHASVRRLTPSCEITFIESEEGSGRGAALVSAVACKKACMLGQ
Text: The excellent glucokinase-activating effect of the compounds of formula (I) may be determined by a method described in literature (for example, Diabetes, Vol. 45, pp. 1671-1677, 1996), or in accordance with it.
The glucokinase activity may be determined not by directly measuring glucose-6-phosphate but by measuring the level of Thio-NADH, which is produced when a reporter enzyme, glucose-6-phosphate dehydrogenase produces phosphogluconolactone from glucose-6-phosphate, and based on the level, the degree of glucokinase activation by the compound tested may be determined.
In this assay, used was a recombinant human liver GK, which was expressed by E. coli as a FLAG fusion protein therein and was purified by […] M2 AFFINITY GEL (Sigma).
Using a flat-bottomed 96-well plate, the assay was carried out at 30° C. 69 μl of an assay buffer (25 mM Hepes Buffer/pH=7.2, 2 mM MgCl2, 1 mM ATP, 0.5 mM TNAD, 1 mM dithiothreitol) was put into the plate, and 1 μl of a DMSO solution of the compound or DMSO alone as a control was added thereto. Next, 20 μl of an enzyme mixture (FLAG-GK, 20 U/ml G6PDH) cooled in ice was added to it, and 10 μl of a substrate, 25 mM glucose was added to it, and the reaction was initiated (final glucose concentration=2.5 mM).
After the start of the reaction, the increase in the absorbance at 405 nm was measured for 12 minutes at intervals of 30 seconds, and the increase for the first 5 minutes was used for assessing the compound tested. FLAG-GK was added so that the absorbance increase after 5 minutes in the presence of 1% DMSO could be from 0.04 to 0.06.
The OD level of the DMSO control was set as 100%; and the OD level of the test compound at different concentrations was determined. From the OD level at each concentration, Emax (%) and EC50 (μM) were computed and used as the index of the GK-activating potency of the compound.

Structure (SMILES)	solubility at 60 min [1] [µM]	Emax [2] [%]	EC50 [2] [µM]
CC(=O)N1CCC[C@@H]1c1cc2[nH]c(-c3cnc(C)cn3)cc2cc1Oc1ccc(OCCO)nc1 [Example 13, 6-[(R)-1-acetylpyrrolidin-2-yl]-5-[6-(2-hydroxyethoxy)pyridin-3-yloxy]-2-(5-methylpyrazin-2-yl)-1H-indole]	93.7 (≈ 44.4 µg/mL)	995	0.23
COCc1ccc(Oc2cc3cc(-c4ccc(CO)cn4)[nH]c3cc2[C@H]2CCCN2C(C)=O)cn1 [Example 15, 6-[(R)-1-acetylpyrrolidin-2-yl]-2-(5-hydroxymethylpyridin-2-yl)-5-(6-methoxymethylpyridin-3-yloxy)-1H-indole]	168 (≈ 79.4 µg/mL)	849	0.13
COCc1ccc(Oc2cc3cc(-c4cnccn4)[nH]c3cc2[C@H]2CCCN2C(C)=O)cn1 [Example 17, 6-[(R)-1-acetylpyrrolidin-2-yl]-5-(6-methoxymethylpyridin-3-yloxy)-2-(pyrazin-2-yl)-1H-indole]	> 170	988	0.08
CCN(CC)C(=O)c1ccc(Oc2cc3cc(-c4cnccn4)[nH]c3cc2[C@H]2CCCN2C(C)=O)cn1 [Example 27]	> 170	957	0.12

Other lines, results leading:

solubility at 60 min [1] [µM]	Emax [2] [%]	EC50 [2] [µM]	Structure (SMILES)
> 170		0.17	COCc1ccc(Oc2cc3cc(-c4cnc(CO)cn4)[nH]c3cc2[C@H]2CCCN2C(C)=O)cn1 [Example 16, 6-[(R)-1-acetylpyrrolidin-2-yl]-2-(5-hydroxymethylpyrazin-2-yl)-5-(6-methoxymethylpyridin-3-yloxy)-1H-indole]
129 (≈ 60.7 µg/mL)	942	0.16	CCNC(=O)c1ccc(Oc2cc3cc(-c4cnccn4)[nH]c3cc2[C@H]2CCCN2C(C)=O)cn1 [Example 26, 6-[(R)-1-acetylpyrrolidin-2-yl]-5-[6-(N-ethylcarbamoyl)pyridin-3-yloxy]-2-(pyrazin-2-yl)-1H-indole]
> 170		0.1	CC(=O)N1CCC[C@@H]1c1cc2[nH]c(-c3cnccn3)cc2cc1Oc1ccc(C(=O)N(C)CCO)nc1 [Example 28]
